In patent publication US10787452B2 (Vertex Pharmaceuticals Incorporated, priority 2012, dated 2020):

Key:
[1] = system: HCT116 colorectal cancer cells; assay: Cisplatin sensitization assay (96 h cell viability MTS); format: cell-based; settings: 96 h MTS, compound plus Cisplatin;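 note: compound concentration needed to lower the Cisplatin-alone IC50 by a set fold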
In short: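 Cisplatin and compound are dosed at the same time, both serially diluted 2-fold from 10 μM final across a full matrix. Plates sit at 37° C in 5% CO2 for 96 h before MTS addition.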

full-length ATR = full-length ATR (Homo sapiens (Human), UniProt Q13535); assay: ATR inhibition assay (radioactive-phosphate incorporation); format: biochemical; settings: 5 nM full-length ATR, Ki(app)
Description: Compounds were screened for their ability to inhibit ATR kinase using a radioactive-phosphate incorporation assay. Assays were carried out in a mixture of 50 mM Tris/HCl (pH 7.5), 10 mM MgCl2 and 1 mM DTT. Final substrate concentrations were 10 μM [y-33P]ATP (3 mCi 33P ATP/mmol ATP, Perkin Elmer) and 800 μM target peptide ([…]) (SEQ ID NO:1).
Assays were carried out at 25° C. in the presence of 5 nM full-length ATR. An assay stock buffer solution was prepared containing all of the reagents listed above, with the exception of ATP and the test compound of interest. 13.5 μL of the stock solution was placed in a 96 well plate followed by addition of 2 μL of DMSO stock containing serial dilutions of the test compound (typically starting from a final concentration of 15 μM with 3-fold serial dilutions) in duplicate (final DMSO concentration 7%). The plate was pre-incubated for 10 minutes at 25° C. and the reaction initiated by addition of 15 μL [γ-33P]ATP (final concentration 10 μM).
The reaction was stopped after […] by the addition of 30 μL 0.1M phosphoric acid containing 2 mM ATP. […]
After removing mean background values for all of the data points, Ki(app) data were calculated from non-linear regression analysis of the initial rate data using the Prism software package (GraphPad Prism version 3.0 cx for Macintosh, GraphPad Software, San Diego Calif., USA).

Sequence of full-length ATR (Q13535 whole entry): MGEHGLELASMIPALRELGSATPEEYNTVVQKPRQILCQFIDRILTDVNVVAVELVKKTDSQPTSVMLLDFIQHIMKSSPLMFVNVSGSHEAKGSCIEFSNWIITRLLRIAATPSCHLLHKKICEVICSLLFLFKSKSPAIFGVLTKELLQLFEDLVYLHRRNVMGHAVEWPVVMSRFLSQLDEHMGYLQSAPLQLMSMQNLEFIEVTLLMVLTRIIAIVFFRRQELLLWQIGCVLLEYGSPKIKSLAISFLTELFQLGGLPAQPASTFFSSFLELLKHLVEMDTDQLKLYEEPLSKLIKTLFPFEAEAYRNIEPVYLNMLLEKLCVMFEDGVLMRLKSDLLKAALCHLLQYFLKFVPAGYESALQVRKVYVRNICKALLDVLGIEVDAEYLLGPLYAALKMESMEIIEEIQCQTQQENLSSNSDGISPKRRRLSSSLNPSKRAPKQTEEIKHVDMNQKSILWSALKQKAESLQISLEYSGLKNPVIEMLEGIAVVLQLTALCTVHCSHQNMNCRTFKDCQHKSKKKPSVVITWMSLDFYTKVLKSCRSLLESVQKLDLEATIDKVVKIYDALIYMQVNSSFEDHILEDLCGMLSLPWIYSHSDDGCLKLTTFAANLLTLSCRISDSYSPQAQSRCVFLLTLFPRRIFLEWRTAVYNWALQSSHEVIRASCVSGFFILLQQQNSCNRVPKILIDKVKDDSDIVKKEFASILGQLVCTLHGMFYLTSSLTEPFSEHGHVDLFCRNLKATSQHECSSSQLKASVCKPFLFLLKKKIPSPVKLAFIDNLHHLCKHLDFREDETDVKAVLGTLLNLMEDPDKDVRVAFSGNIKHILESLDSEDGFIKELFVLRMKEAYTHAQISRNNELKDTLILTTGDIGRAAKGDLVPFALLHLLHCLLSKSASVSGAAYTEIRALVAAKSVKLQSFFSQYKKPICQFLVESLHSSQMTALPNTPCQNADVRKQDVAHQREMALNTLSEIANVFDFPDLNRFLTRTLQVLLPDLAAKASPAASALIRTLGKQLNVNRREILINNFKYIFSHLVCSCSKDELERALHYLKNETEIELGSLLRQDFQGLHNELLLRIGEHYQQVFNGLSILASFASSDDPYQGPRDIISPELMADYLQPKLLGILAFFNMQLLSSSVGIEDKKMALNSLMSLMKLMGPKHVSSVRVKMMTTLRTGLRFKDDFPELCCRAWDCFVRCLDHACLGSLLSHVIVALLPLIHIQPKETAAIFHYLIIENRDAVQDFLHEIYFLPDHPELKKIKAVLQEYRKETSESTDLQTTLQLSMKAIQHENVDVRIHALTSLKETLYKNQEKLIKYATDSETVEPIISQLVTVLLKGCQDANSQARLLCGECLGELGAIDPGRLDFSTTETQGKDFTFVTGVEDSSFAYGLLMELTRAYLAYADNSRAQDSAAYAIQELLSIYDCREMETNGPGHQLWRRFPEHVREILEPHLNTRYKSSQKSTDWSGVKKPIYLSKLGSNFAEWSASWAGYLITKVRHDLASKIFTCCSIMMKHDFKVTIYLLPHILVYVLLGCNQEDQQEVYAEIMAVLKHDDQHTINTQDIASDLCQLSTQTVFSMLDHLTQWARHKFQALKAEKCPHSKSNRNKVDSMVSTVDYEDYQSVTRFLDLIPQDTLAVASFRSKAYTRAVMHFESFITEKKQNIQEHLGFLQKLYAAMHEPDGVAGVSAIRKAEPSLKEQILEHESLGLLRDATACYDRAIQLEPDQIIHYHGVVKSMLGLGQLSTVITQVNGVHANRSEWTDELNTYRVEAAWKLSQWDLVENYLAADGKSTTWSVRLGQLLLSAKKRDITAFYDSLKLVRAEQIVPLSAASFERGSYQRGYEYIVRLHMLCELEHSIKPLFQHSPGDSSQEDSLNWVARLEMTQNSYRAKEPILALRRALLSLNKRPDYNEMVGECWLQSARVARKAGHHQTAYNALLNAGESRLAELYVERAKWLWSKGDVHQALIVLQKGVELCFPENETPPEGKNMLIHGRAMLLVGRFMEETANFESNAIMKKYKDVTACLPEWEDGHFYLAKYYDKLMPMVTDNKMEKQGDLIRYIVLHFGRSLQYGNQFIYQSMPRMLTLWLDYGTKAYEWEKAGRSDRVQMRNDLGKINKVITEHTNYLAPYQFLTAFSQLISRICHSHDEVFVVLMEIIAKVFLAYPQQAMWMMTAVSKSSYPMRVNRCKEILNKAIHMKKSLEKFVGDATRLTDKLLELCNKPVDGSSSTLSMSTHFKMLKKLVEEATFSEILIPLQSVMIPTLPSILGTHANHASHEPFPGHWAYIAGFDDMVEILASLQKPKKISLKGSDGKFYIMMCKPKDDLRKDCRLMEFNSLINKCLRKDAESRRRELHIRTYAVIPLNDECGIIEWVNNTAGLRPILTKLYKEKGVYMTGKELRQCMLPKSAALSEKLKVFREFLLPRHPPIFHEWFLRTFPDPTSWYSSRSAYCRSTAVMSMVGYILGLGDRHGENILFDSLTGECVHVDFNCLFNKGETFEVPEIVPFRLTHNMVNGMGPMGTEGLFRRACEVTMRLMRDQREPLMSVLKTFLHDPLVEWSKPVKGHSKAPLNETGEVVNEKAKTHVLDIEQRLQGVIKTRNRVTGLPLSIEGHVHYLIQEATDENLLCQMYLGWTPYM

Structure (SMILES)	Cisplatin Sensitization Assay [1]	Ki (full-length ATR) [nM]
Nc1nn2cc(F)cnc2c1C(=O)Nc1cnccc1-c1ccc(C(=O)N2CCN3CCC2CC3)cc1F [I-C-50, N-(4-(4-(1,4-diazabicyclo[3.2.2]nonane-4-carbonyl)-2-fluorophenyl)pyridin-3-yl)-2-amino-6-fluoropyrazolo[1,5-a]pyrimidine-3-carboxamide]	+++ (Compounds with a Cisplatin sensitization value of <0.02 μM are marked with “+++.”)	10 to 1000
Nc1nn2cc(F)cnc2c1C(=O)Nc1cncc(F)c1N1CCC(C(=O)O)CC1 [I-N-92, 1-(3-(2-amino-6-fluoropyrazolo[1,5-a]pyrimidine-3-carboxamido)-5-fluoropyridin-4-yl)piperidine-4-carboxylic Acid]	+ (Compounds with a Cisplatin sensitization value >0.2 μM but <5 μM are marked with “+.”)	1000 to 5000
Nc1nn2cc(F)cnc2c1C(=O)Nc1cncc(F)c1OC1CCN(C2COC2)CC1 [I-O-91, 2-amino-6-fluoro-N-(5-fluoro-4-((1-(oxetan-3-yl)piperidin-4-yl)oxy)pyridin-3-yl)pyrazolo[1,5-a]pyrimidine-3-carboxamide]	++ (Compounds with a Cisplatin sensitization value >0.02 μM but <0.2 μM are marked with “++.”)	–
Nc1nn2cc(F)cnc2c1C(=O)Nc1cnccc1OC1COC1 [I-O-92, 2-amino-6-fluoro-N-(4-(oxetan-3-yloxy)pyridin-3-yl)pyrazolo[1,5-a]pyrimidine-3-carboxamide]	+++ (Compounds with a Cisplatin sensitization value of <0.02 μM are marked with “+++.”)	–
